Measurements as given in patent US20260078120A1, “SUBSTITUTED PYRIDOPYRIMIDINONES” (MIRATI THERAPEUTICS, INC., priority 2022, published 2026).
Where two headings read alike, the source gives them in different places.

Assays:
[1] = tested on: T47D (PI3Kα H1047R mutant) cells; experiment: CellTiter-Glo 2.0 luminescent cell viability assay, 72 hours, T47D cells; format: cell-based; details: T47D (PI3Kα H1047R mutant) cells, CellTiter-Glo, approximately 72 hours, read-out: T47D (H1047R mutant) Viability IC50
Outline: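 Cells seeded at 1000 per well overnight were dosed with a 10-concentration, 1:4 series starting at 10 µM and incubated ~72 h at 37° C. Viability was read by CellTiter-Glo 2.0 luminescence after 30 min at room temperature. IC50 came from four-parameter fits of percent vehicle control.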

[2] = tested on: SKBR3 (PI3Kα wild type) cells; experiment: CellTiter-Glo 2.0 luminescent cell viability assay, 72 hours, SKBR3 cells; format: cell-based; details: Homo sapiens, SK-BR-3, 72 h, SKBR3 (PI3Kα wild type) cells, CellTiter-Glo, approximately 72 hours; read-out: SKBR3 (WT) Viability IC50
Outline: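 Viability measured via CTG luminescence following roughly 72 hours of compound exposure at 37° C. Dosing used a 10 um starting concentration diluted 1:4 over 10 points; percent-of-vehicle data fitted with a variable-slope four-parameter model for IC50.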

CNC(=O)c1ccc(N2CCN(c3nc4c([C@@H](C)Nc5ccccc5C(=O)O)cc(C)cn4c(=O)c3C)CC2)cc1 [Example 11-249, (R)-2-((1-(3,7-dimethyl-2-(4-(4-(methylcarbamoyl)phenyl)piperazin-1-yl)-4-oxo-4H-pyrido[1,2-a]pyrimidin-9-yl)ethyl)amino)benzoic acid] was tested, and the IC50 ([1]; Homo sapiens, T47D, 72 h) was 118 nM and the IC50 [2] was greater than 10000 nM.
Compound Cc1cc([C@@H](C)Nc2ccccc2C(=O)O)c2nc(N3CCN(c4ccc(C(N)=O)cc4)CC3)c(C)c(=O)n2c1 [Example 11-250, (R)-2-((1-(2-(4-(4-carbamoylphenyl)piperazin-1-yl)-3,7-dimethyl-4-oxo-4H-pyrido[1,2-a]pyrimidin-9-yl)ethyl)amino)benzoic acid] has an IC50 ([1]; Homo sapiens, T47D, 72 h) of 482 nM and an IC50 [2] greater than 10000 nM.
Compound Cc1cc([C@@H](C)Nc2ccccc2C(=O)O)c2nc(N3CCN(c4cccc5c(C#N)nn(C)c45)CC3)c(C)c(=O)n2c1 [Example 11-251, (R)-2-((1-(2-(4-(3-cyano-1-methyl-1H-indazol-7-yl)piperazin-1-yl)-3,7-dimethyl-4-oxo-4H-pyrido[1,2-a]pyrimidin-9-yl)ethyl)amino)benzoic acid] has an IC50 ([1]; Homo sapiens, T47D, 72 h) of 263 nM and an IC50 [2] greater than 10000 nM.
Work on Cc1cc([C@@H](C)Nc2ccccc2C(=O)O)c2nc(N3CCC(c4cc[nH]n4)CC3)c(C)c(=O)n2c1 [Example 11-252, (R)-2-((1-(2-(4-(1H-pyrazol-3-yl)piperidin-1-yl)-3,7-dimethyl-4-oxo-4H-pyrido[1,2-a]pyrimidin-9-yl)ethyl)amino)benzoic acid] yielded an IC50 ([1]; Homo sapiens, T47D, 72 h) of 114 nM and an IC50 [2] greater than 10000 nM.
Compound Cc1cc([C@@H](C)Nc2ccccc2C(=O)O)c2nc(C#Cc3ccc(C#N)cc3)c(C)c(=O)n2c1 [Example 11-253, (R)-2-((1-(2-((4-cyanophenyl)ethynyl)-3,7-dimethyl-4-oxo-4H-pyrido[1,2-a]pyrimidin-9-yl)ethyl)amino)benzoic acid] has an IC50 ([1]; Homo sapiens, T47D, 72 h) of 492 nM and an IC50 [2] greater than 10000 nM.
In the case of Cc1cc([C@@H](C)Nc2ccccc2C(=O)O)c2nc(N3CCN(c4ccc(C#N)c5cc(O)ccc45)CC3)c(C)c(=O)n2c1 [Example 11-254, (R)-2-((1-(2-(4-(4-cyano-6-hydroxynaphthalen-1-yl)piperazin-1-yl)-3,7-dimethyl-4-oxo-4H-pyrido[1,2-a]pyrimidin-9-yl)ethyl)amino)benzoic acid], the IC50 ([1]; Homo sapiens, T47D, 72 h) is reported as 124 nM and the IC50 [2] is reported as greater than 10000 nM.
Cc1cc([C@@H](C)Nc2ccccc2C(=O)O)c2nc(N3CCN(c4ccc(C#N)c5ccc(O)cc45)CC3)c(C)c(=O)n2c1 [Example 11-255, (R)-2-((1-(2-(4-(4-cyano-7-hydroxynaphthalen-1-yl)piperazin-1-yl)-3,7-dimethyl-4-oxo-4H-pyrido[1,2-a]pyrimidin-9-yl)ethyl)amino)benzoic acid] was tested, and the IC50 ([1]; Homo sapiens, T47D, 72 h) was 280 nM and the IC50 [2] was greater than 10000 nM.
CC(=O)N1CCC(c2nc3c([C@@H](C)Nc4ccccc4C(=O)O)cc(C)cn3c(=O)c2C#N)CC1 [Example 11-256, (R)-2-((1-(2-(1-acetylpiperidin-4-yl)-3-cyano-7-methyl-4-oxo-4H-pyrido[1,2-a]pyrimidin-9-yl)ethyl)amino)benzoic acid] gave an IC50 ([1]; Homo sapiens, T47D, 72 h) of 511 nM and an IC50 [2] greater than 10000 nM.
Cc1cc(C(C)Nc2ccccc2C(=O)O)c2nc(N3CCN(c4ccc(CN)cc4)CC3)cc(=O)n2c1 (centres unmarked) [Example 11-257, 2-((1-(2-(4-(4-(aminomethyl)phenyl)piperazin-1-yl)-7-methyl-4-oxo-4H-pyrido[1,2-a]pyrimidin-9-yl)ethyl)amino)benzoic acid] was tested, and the IC50 ([1]; Homo sapiens, T47D, 72 h) was 9520 nM and the IC50 [2] was greater than 10000 nM.
Compound Cc1cc([C@@H](C)Nc2ccccc2C(=O)O)c2nc(N3CCN(c4ncc(C#N)cn4)CC3)c(C)c(=O)n2c1 [Example 11-258, (R)-2-((1-(2-(4-(5-cyanopyrimidin-2-yl)piperazin-1-yl)-3,7-dimethyl-4-oxo-4H-pyrido[1,2-a]pyrimidin-9-yl)ethyl)amino)benzoic acid] has an IC50 ([1]; Homo sapiens, T47D, 72 h) of 119 nM and an IC50 [2] greater than 10000 nM.
Cc1cc([C@@H](C)Nc2ccccc2C(=O)O)c2nc(N3CCN(c4ccccc4C#N)CC3)c(C#N)c(=O)n2c1 [Example 11-260, (R)-2-((1-(3-cyano-2-(4-(2-cyanophenyl)piperazin-1-yl)-7-methyl-4-oxo-4H-pyrido[1,2-a]pyrimidin-9-yl)ethyl)amino)benzoic acid] was tested, and the IC50 ([1]; Homo sapiens, T47D, 72 h) was 368 nM and the IC50 [2] was greater than 10000 nM.
Cc1cc([C@@H](C)Nc2ccccc2C(=O)O)c2nc(N3CCN(C(=O)c4ccccc4)CC3)c(C#N)c(=O)n2c1 [Example 11-263, (R)-2-((1-(2-(4-benzoylpiperazin-1-yl)-3-cyano-7-methyl-4-oxo-4H-pyrido[1,2-a]pyrimidin-9-yl)ethyl)amino)benzoic acid] showed an IC50 ([1]; Homo sapiens, T47D, 72 h) of 1290 nM and an IC50 [2] greater than 10000 nM.
Cc1cc([C@@H](C)Nc2ccccc2C(=O)O)c2nc(N3CCN(c4cnn(C)c4)CC3)c(C#N)c(=O)n2c1 [Example 11-264, (R)-2-((1-(3-cyano-7-methyl-2-(4-(1-methyl-1H-pyrazol-4-yl)piperazin-1-yl)-4-oxo-4H-pyrido[1,2-a]pyrimidin-9-yl)ethyl)amino)benzoic acid] gave an IC50 ([1]; Homo sapiens, T47D, 72 h) of 1180 nM and an IC50 [2] greater than 10000 nM.
With Cc1cc([C@@H](C)Nc2ccccc2C(=O)O)c2nc(N3CCN(c4cnn(C)c4)CC3)c(C)c(=O)n2c1 [Example 11-265, (R)-2-((1-(3,7-dimethyl-2-(4-(1-methyl-1H-pyrazol-4-yl)piperazin-1-yl)-4-oxo-4H-pyrido[1,2-a]pyrimidin-9-yl)ethyl)amino)benzoic acid] the IC50 ([1]; Homo sapiens, T47D, 72 h) was 248 nM and the IC50 [2] was greater than 10000 nM.
Compound Cc1cc([C@@H](C)Nc2ccccc2C(=O)O)c2nc(N3CCN(c4ccccc4C)CC3)c(C)c(=O)n2c1 [Example 11-267, (R)-2-((1-(3,7-dimethyl-4-oxo-2-(4-(o-tolyl)piperazin-1-yl)-4H-pyrido[1,2-a]pyrimidin-9-yl)ethyl)amino)benzoic acid] has an IC50 ([1]; Homo sapiens, T47D, 72 h) of 236 nM and an IC50 [2] greater than 10000 nM.
Work on Cc1cc([C@@H](C)Nc2ccccc2C(=O)O)c2nc(N3CCN(c4ccccc4)CC3C)c(C)c(=O)n2c1 (stereo partly drawn) [Example 11-268, 2-(((1R)-1-(3,7-dimethyl-2-(2-methyl-4-phenylpiperazin-1-yl)-4-oxo-4H-pyrido[1,2-a]pyrimidin-9-yl)ethyl)amino)benzoic acid] yielded an IC50 ([1]; Homo sapiens, T47D, 72 h) of 362 nM and an IC50 [2] greater than 10000 nM.
Cc1cc([C@@H](C)Nc2ccccc2C(=O)O)c2nc(N3CCN(c4ccc(C#N)cc4)CC3C)c(C)c(=O)n2c1 (stereo partly drawn) [Example 11-269, 2-(((1R)-1-(2-(4-(4-cyanophenyl)-2-methylpiperazin-1-yl)-3,7-dimethyl-4-oxo-4H-pyrido[1,2-a]pyrimidin-9-yl)ethyl)amino)benzoic acid] was tested, and the IC50 [1] was 110 nM and the IC50 [2] was greater than 10000 nM.
With Cc1cc([C@@H](C)Nc2ccccc2C(=O)O)c2nc(N3CCN(c4ccc(C#N)cc4)[C@H](C)C3)c(C#N)c(=O)n2c1 [Example 11-270, 2-(((R)-1-(3-cyano-2-((R)-4-(4-cyanophenyl)-3-methylpiperazin-1-yl)-7-methyl-4-oxo-4H-pyrido[1,2-a]pyrimidin-9-yl)ethyl)amino)benzoic acid] the IC50 ([1]; Homo sapiens, T47D, 72 h) was 227 nM and the IC50 [2] was greater than 10000 nM.
In the case of Cc1cc([C@@H](C)Nc2ccccc2C(=O)O)c2nc(N3CCN(c4ccc(C#N)cc4)C(C)C3)c(C#N)c(=O)n2c1 (stereo partly drawn) [Example 11-271, 2-(((1R)-1-(3-cyano-2-(4-(4-cyanophenyl)-3-methylpiperazin-1-yl)-7-methyl-4-oxo-4H-pyrido[1,2-a]pyrimidin-9-yl)ethyl)amino)benzoic acid], the IC50 ([1]; Homo sapiens, T47D, 72 h) is reported as 118 nM and the IC50 [2] is reported as 7100 nM.
With Cc1cc([C@@H](C)Nc2ccccc2C(=O)O)c2nc(N3CCN(c4ccc(C#N)cc4)CC3)c(C#N)c(=O)n2c1 [Example 11-272, (R)-2-((1-(3-cyano-2-(4-(4-cyanophenyl)piperazin-1-yl)-7-methyl-4-oxo-4H-pyrido[1,2-a]pyrimidin-9-yl)ethyl)amino)benzoic acid] the IC50 ([1]; Homo sapiens, T47D, 72 h) was 141 nM and the IC50 [2] was greater than 10000 nM.
Compound Cc1cc([C@@H](C)Nc2ccccc2C(=O)O)c2nc(N3CCN(c4ccccc4)CC3)c(C)c(=O)n2c1 [Example 11-273, (R)-2-((1-(3,7-dimethyl-4-oxo-2-(4-phenylpiperazin-1-yl)-4H-pyrido[1,2-a]pyrimidin-9-yl)ethyl)amino)benzoic acid] has an IC50 ([1]; Homo sapiens, T47D, 72 h) of 3100 nM and an IC50 [2] of 7390 nM.
In the case of Cc1cc([C@@H](C)Nc2ccncc2C(=O)O)c2nc(N3Cc4ccccc4C3)c(C#N)c(=O)n2c1 [Example 11-274, (R)-4-((1-(3-cyano-2-(isoindolin-2-yl)-7-methyl-4-oxo-4H-pyrido[1,2-a]pyrimidin-9-yl)ethyl)amino)nicotinic acid], the IC50 ([1]; Homo sapiens, T47D, 72 h) is reported as greater than 10000 nM and the IC50 [2] is reported as greater than 10000 nM.
Compound Cc1cc([C@@H](C)Nc2ccncc2C(=O)O)c2nc(N3Cc4ccccc4C3)c(C)c(=O)n2c1 [Example 11-275, (R)-4-((1-(2-(isoindolin-2-yl)-3,7-dimethyl-4-oxo-4H-pyrido[1,2-a]pyrimidin-9-yl)ethyl)amino)nicotinic acid] has an IC50 ([1]; Homo sapiens, T47D, 72 h) greater than 10000 nM and an IC50 [2] greater than 10000 nM.
Compound Cc1cc([C@@H](C)Nc2cc(Cl)nnc2C(=O)O)c2nc(N3Cc4ccccc4C3)c(C)c(=O)n2c1 [Example 11-276, (R)-6-chloro-4-((1-(2-(isoindolin-2-yl)-3,7-dimethyl-4-oxo-4H-pyrido[1,2-a]pyrimidin-9-yl)ethyl)amino)pyridazine-3-carboxylic acid] has an IC50 ([1]; Homo sapiens, T47D, 72 h) greater than 10000 nM and an IC50 [2] greater than 10000 nM.
Compound Cc1cc([C@@H](C)Nc2ccnnc2C(=O)O)c2nc(N3Cc4ccccc4C3)c(C)c(=O)n2c1 [Example 11-277, (R)-4-((1-(2-(isoindolin-2-yl)-3,7-dimethyl-4-oxo-4H-pyrido[1,2-a]pyrimidin-9-yl)ethyl)amino)pyridazine-3-carboxylic acid] has an IC50 ([1]; Homo sapiens, T47D, 72 h) of 4190 nM and an IC50 [2] greater than 10000 nM.
